Experimental findings from patent publication US9604975B2, “Indolyl-pyridone derivatives having checkpoint kinase 1 inhibitory activity” (Vernalis (R&D) Ltd., priority 2009, dated 2017) are described below.

One assay relates to HT29 cells. As to the kind of experiment: CHK1 Cellular Assay - Gemcitabine EC50 Assay. It counts as cell-based. Conditions: for EC50: HT29 cells, in the presence of gemcitabine at 10 nM, 72 hours, SRB staining, read-out: CHK1 Cellular Activity (EC50 range). Here is the method: The gemcitabine EC50 assay was developed as a rapid method for screening CHK1 inhibitors to determine their relative cell activity. This assay utilises a feature of the effect of CHK1 inhibitors on gemcitabine toxicity. In the absence of a CHK1 inhibitor, gemcitabine acts predominantly as an anti-metbolite and therefore induces very little cell death, even at high concentrations. This can be as high as 70-80% survival at concentrations in excess of 1 μM. However, in the presence of a CHK1 inhibitor, the mechanism of action of gemcitabine switches to a more classical cytotoxic mode of action. For example, the fraction of cells surviving can be reduced to around 30% and below. Concentrations of gemcitabine can be selected that in the absence of a CHK1 inhibitor, have no effect on cell survival but in the presence of a CHK1 inhibitor are highly cytotoxic. 10000 HT29 cells were plated per well of a 96 well plate and allowed to attach at 37° C. in a 5% CO2 humidified incubator for 18 hours. CHK1 inhibitors were then titrated in the presence of 10, 15 and 20 nM gemcitabine for 72 hours and the EC50 determined by staining with sulforhodamine B (SRB) and determining the absorbance at 540 nm.

A further assay has as its target T1, CHK1 (Homo sapiens, UniProt O14757).
T1 construct: His; purchased Invitrogen
T1 sequence (O14757 1-476): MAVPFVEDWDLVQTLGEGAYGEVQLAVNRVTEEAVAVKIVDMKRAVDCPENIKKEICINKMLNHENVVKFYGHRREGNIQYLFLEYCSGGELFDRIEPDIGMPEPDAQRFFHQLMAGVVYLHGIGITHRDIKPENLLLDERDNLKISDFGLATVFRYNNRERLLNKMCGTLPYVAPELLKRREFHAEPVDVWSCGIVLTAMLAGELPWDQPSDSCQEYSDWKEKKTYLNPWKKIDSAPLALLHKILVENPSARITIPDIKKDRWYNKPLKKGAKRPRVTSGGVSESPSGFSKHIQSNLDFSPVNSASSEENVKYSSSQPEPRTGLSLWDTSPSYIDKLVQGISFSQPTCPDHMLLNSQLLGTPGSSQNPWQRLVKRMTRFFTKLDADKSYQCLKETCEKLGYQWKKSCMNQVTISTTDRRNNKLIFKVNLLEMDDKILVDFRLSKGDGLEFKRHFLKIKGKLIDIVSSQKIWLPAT
As to the kind of experiment: CHK1 Enzyme Assay (phosphorylation of Chktide peptide, 33P-ATP filter assay). Type of assay: biochemical. The following applies: 12.5 nM His-CHK1, 0.01 mM ATP, 40 minutes at 30° C.; read-out: CHK1 Enzyme Activity (IC50 range). The gist of the method:
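His-CHK1 (12.5 nM) phosphorylating 14.8 μM Chktide with 0.01 mM ATP plus 33P-γ-ATP, in 50 mM Hepes-NaOH pH 7.5 with 0.1 mg/mL BSA. Incubated with inhibitor for 40 min at 30 °C. Stopped with phosphoric acid; phosphopeptide captured on filter and counted by scintillation.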

For the compound `O=C(Nc1c[nH]c(=O)c(-c2cc3ccccc3[nH]2)c1)c1cnn(Cc2ccccc2)c1` [Example 20, 1-Benzyl-1H-pyrazole-4-carboxylic acid [5-(1H-indol-2-yl)-6-oxo-1,6-dihydro-pyridin-3-yl]-amide], in the assay with HT29 cells, the EC50 was 100 to 500 nM. Besides, the IC50 at CHK1 is less than 100 nM. Taken in the same sequence, the figures for `Cc1ccc(Cn2cc(C(=O)Nc3c[nH]c(=O)c(-c4cc5cc(CN6CCCCC6)ccc5[nH]4)c3)cn2)cc1` [Example 38, 1-(4-Methyl-benzyl)-1H-pyrazole-4-carboxylic acid [6-oxo-5-(5-piperidin-1-ylmethyl-1H-indol-2-yl)-1,6-dihydro-pyridin-3-yl]-amide] were 100 to 500 nM and less than 100 nM. With `O=C(Nc1c[nH]c(=O)c(-c2cc3cc(CN4CCC(F)CC4)ccc3[nH]2)c1)c1cnn(Cc2ccccc2)c1` [Example 49, 1-Benzyl-1H-pyrazole-4-carboxylic acid {3-[5-(4-fluoro-piperidin-1-ylmethyl)-1H-indol-2-yl]-6-oxo-1,6-dihydro-pyridin-3-yl}-amide], in the assay with HT29 cells, the 50% effective concentration (EC50) was less than 100 nM. Moreover, on CHK1, the IC50 was less than 100 nM. Take `O=C(Nc1c[nH]c(=O)c(-c2cc3cc(CN4CCCCC4)ccc3[nH]2)c1)c1cnn(Cc2ccccc2)c1` [Example 52, 1-Benzyl-1H-pyrazole-4-carboxylic acid [6-oxo-5-(5-piperidin-1-ylmethyl-1H-indol-2-yl)-1,6-dihydro-pyridin-3-yl]-amide]: in the assay on HT29 cells, the EC50 is less than 100 nM. On CHK1, the IC50 was less than 100 nM.

As for `C[C@@H]1CN(Cc2ccc3[nH]c(-c4cc(NC(=O)c5cnn(Cc6ccccc6)c5)c[nH]c4=O)cc3c2)C[C@H](C)O1` [Example 71, 1-Benzyl-1H-pyrazole-4-carboxylic acid {5-[5-(cis-2,6-dimethyl-morpholin-4-ylmethyl)-1H-indol-2-yl]-6-oxo-1,6-dihydro-pyridin-3-yl}-amide], the concentration for a half-maximal effect (EC50) with HT29 cells was less than 100 nM. Further, the IC50 on CHK1 was less than 100 nM.

On to `CC1CCN(Cc2ccc3[nH]c(-c4cc(NC(=O)c5cnn(Cc6ccccc6)c5)c[nH]c4=O)cc3c2)CC1` [Example 78, 1-Benzyl-1H-pyrazole-4-carboxylic acid {5-[5-(4-methyl-piperidin-1-ylmethyl)-1H-indol-2-yl]-6-oxo-1,6-dihydro-pyridin-3-yl}-amide], for which the EC50 in the assay with HT29 cells was less than 100 nM. In addition, the IC50 on CHK1 is less than 100 nM. For the compound `CC(c1ccccc1)n1cc(C(=O)Nc2c[nH]c(=O)c(-c3cc4cc(CN5CCC(F)CC5)ccc4[nH]3)c2)cn1` (stereo not shown) [Example 87, 1-(1-Phenyl-ethyl)-1H-pyrazole-4-carboxylic acid {5-[5-(4-fluoro-piperidin-1-ylmethyl)-1H-indol-2-yl]-6-oxo-1,6-dihydro-pyridin-3-yl}-amide], the EC50 in the assay on HT29 cells was less than 100 nM. The IC50 at CHK1 was less than 100 nM. On to `CN(C)CC(C)(C)COc1ccc2[nH]c(-c3cc(NC(=O)c4cnn(Cc5ccccc5)c4)c[nH]c3=O)cc2c1` [Example 120, 1-Benzyl-1H-pyrazole-4-carboxylic acid {5-[5-(3-dimethylamino-2,2-dimethyl-propoxy)-1H-indol-2-yl]-6-oxo-1,6-dihydro-pyridin-3-yl}-amide], for which the EC50 with HT29 cells was less than 100 nM. The concentration for half-maximal inhibition (IC50) on CHK1 is less than 100 nM. On to `C[C@@H]1CN(Cc2ccc3[nH]c(-c4cc(NC(=O)c5cnn([C@H](C)c6ccccc6)c5)c[nH]c4=O)cc3c2)C[C@H](C)O1` [Example 166], for which the EC50 with HT29 cells was less than 100 nM. On CHK1, the IC50 was less than 100 nM. For `C[C@H]1CCCCN1Cc1ccc2[nH]c(-c3cc(NC(=O)c4cnn(Cc5ccccc5)c4)c[nH]c3=O)cc2c1` [Example 171, 1-Benzyl-1H-pyrazole-4-carboxylic acid {5-[5-((S)-2-methyl-piperidin-1-ylmethyl)-1H-indol-2-yl]-6-oxo-1,6-dihydro-pyridin-3-yl}-amide], the EC50 in the assay with HT29 cells is less than 100 nM. Also, at CHK1, the IC50 is less than 100 nM. For the compound `C[C@@H]1CCCCN1Cc1ccc2[nH]c(-c3cc(NC(=O)c4cnn(Cc5ccccc5)c4)c[nH]c3=O)cc2c1` [Example 173, 1-Benzyl-1H-pyrazole-4-carboxylic acid {5-[5-((R)-2-methyl-piperidin-1-ylmethyl)-1H-indol-2-yl]-6-oxo-1,6-dihydro-pyridin-3-yl}-amide], in the assay on HT29 cells, the EC50 was less than 100 nM. Also, the IC50 on CHK1 is less than 100 nM.

As to `CCN(Cc1ccc2[nH]c(-c3cc(NC(=O)c4cnn(Cc5ccccc5)c4)c[nH]c3=O)cc2c1)CC(C)(C)CN(C)C` [Example 176, 1-Benzyl-1H-pyrazole-4-carboxylic acid [5-(5-{[(3-dimethylamino-2,2-dimethyl-propyl)-ethyl-amino]-methyl}-1H-indol-2-yl)-6-oxo-1,6-dihydro-pyridin-3-yl]-amide], in the assay with HT29 cells, the EC50 lay within 100 to 500 nM. Moreover, at CHK1, the IC50 is less than 100 nM. For `C[C@@H]1CCC[C@H](C)N1Cc1ccc2[nH]c(-c3cc(NC(=O)c4cnn(Cc5ccccc5)c4)c[nH]c3=O)cc2c1` [Example 177, 1-Benzyl-1H-pyrazole-4-carboxylic acid {5-[5-(cis-2,6-dimethyl-piperidin-1-ylmethyl)-1H-indol-2-yl]-6-oxo-1,6-dihydro-pyridin-3-yl}-amide] the same measures were less than 100 nM and less than 100 nM. Take `CCN(CC)CC(C)(C)COc1ccc2[nH]c(-c3cc(NC(=O)c4cnn(Cc5ccccc5)c4)c[nH]c3=O)cc2c1` [Example 178, 1-Benzyl-1H-pyrazole-4-carboxylic acid {5-[5-(3-diethylamino-2,2-dimethyl-propoxy)-1H-indol-2-yl]-6-oxo-1,6-dihydro-pyridin-3-yl}-amide]: the EC50 in the assay on HT29 cells is less than 100 nM. Further, the IC50 at CHK1 was less than 100 nM.

As for `CN(C)CC(C)(C)Oc1ccc2[nH]c(-c3cc(NC(=O)c4cnn(Cc5ccccc5)c4)c[nH]c3=O)cc2c1` [Example 179, 1-Benzyl-1H-pyrazole-4-carboxylic acid {5-[5-(2-dimethylamino-1,1-dimethyl-ethoxy)-1H-indol-2-yl]-6-oxo-1,6-dihydro-pyridin-3-yl}-amide], in the assay on HT29 cells, the EC50 is less than 100 nM. In addition, on CHK1, the IC50 is less than 100 nM. In the case of `CC(C)(COc1ccc2[nH]c(-c3cc(NC(=O)c4cnn(Cc5ccccc5)c4)c[nH]c3=O)cc2c1)CN1CCCC1` [Example 180, 1-Benzyl-1H-pyrazole-4-carboxylic acid {5-[5-(2,2-dimethyl-3-pyrrolidin-1-yl-propoxy)-1H-indol-2-yl]-6-oxo-1,6-dihydro-pyridin-3-yl}-amide], the EC50 in the assay with HT29 cells was less than 100 nM. The IC50 at CHK1 is less than 100 nM.

With `CC(C)(COc1ccc2[nH]c(-c3cc(NC(=O)c4cnn(Cc5ccccc5)c4)c[nH]c3=O)cc2c1)CN1CC[C@H](F)C1` [Example 183, 1-Benzyl-1H-pyrazole-4-carboxylic acid (5-{5-[3-((S)-3-fluoro-pyrrolidin-1-yl)-2,2-dimethyl-propoxyl]-1H-indol-2-yl}-6-oxo-1,6-dihydro-pyridin-3-yl)-amide], the IC50 on CHK1 was less than 100 nM. With `CC(C)(COc1ccc2[nH]c(-c3cc(NC(=O)c4cnn(Cc5ccccc5)c4)c[nH]c3=O)cc2c1)CN1CCOCC1` [Example 184, 1-Benzyl-1H-pyrazole-4-carboxylic acid {5-[5-(2,2-dimethyl-3-morpholin-4-yl-propoxy)-1H-indol-2-yl]-6-oxo-1,6-dihydro-pyridin-3-yl}-amide], on CHK1, the IC50 is less than 100 nM. Regarding `O=C(Nc1c[nH]c(=O)c(-c2cc3cc(OCC4(CN5CCCC5)CC4)ccc3[nH]2)c1)c1cnn(Cc2ccccc2)c1` [Example 187, 1-Benzyl-1H-pyrazole-4-carboxylic acid {6-oxo 5-[5-(1-pyrrolidin-1-ylmethyl-cyclopropylmethoxy)-1H-indol-2-yl]-1,6-dihydro-pyridin-3-yl}-amide], the 50% inhibitory concentration (IC50) at CHK1 was less than 100 nM. Take `CN(C)CC1(COc2ccc3[nH]c(-c4cc(NC(=O)c5cnn(Cc6ccccc6)c5)c[nH]c4=O)cc3c2)CC1` [Example 188, 1-Benzyl-1H-pyrazole-4-carboxylic acid {5-[5-(1-dimethylaminomethyl-cyclopropylmethoxy)-1H-indol-2-yl]-6-oxo-1,6-dihydro-pyridin-3-yl}-amide]: the IC50 at CHK1 is less than 100 nM. Consider `Nc1ccn([C@@H]2O[C@H](CO)[C@@H](O)C2(F)F)c(=O)n1` [gemcitabine, reference compound], for which the survival in the assay on HT29 cells (gemcitabine in the absence of a CHK1 inhibitor, concentrations in excess of 1 μM) is reported as 70-80%.
